{"source": "paper PMC7849180", "about": "(Frontiers in Pharmacology, 2020)", "key": {"[1]": {"test": "Treatment-related AEs (NCI CTCAE), SAD cohorts", "assay_type": "in vivo, human", "protocol": "In SAD part, volunteers were designed into eight SAD cohorts (25, 50, 100, 150, 200, 250, 300 and 400 mg). Among these cohorts, 25 mg was bisected by the 50 mg specification under good manufacturing practices (GMP) condition and provided the certificate of analysis. […] Jaktinib or placebo was administrated after an overnight fast.\nDose-limiting toxicities (DLTs) were defined according to the NCI CTCAE v.4.03 as any occurrence of the following drug-related adverse events (AEs): more than one third of volunteers suffered Grade ≥4 drug-related hematological toxicities or Grade ≥3 drug-related nonhematological toxicities; one drug-related serious adverse events (SAEs)."}, "JAK2": {"molecular_target": "JAK2 (Homo sapiens, UniProt O60674)", "sequence (O60674 whole entry)": "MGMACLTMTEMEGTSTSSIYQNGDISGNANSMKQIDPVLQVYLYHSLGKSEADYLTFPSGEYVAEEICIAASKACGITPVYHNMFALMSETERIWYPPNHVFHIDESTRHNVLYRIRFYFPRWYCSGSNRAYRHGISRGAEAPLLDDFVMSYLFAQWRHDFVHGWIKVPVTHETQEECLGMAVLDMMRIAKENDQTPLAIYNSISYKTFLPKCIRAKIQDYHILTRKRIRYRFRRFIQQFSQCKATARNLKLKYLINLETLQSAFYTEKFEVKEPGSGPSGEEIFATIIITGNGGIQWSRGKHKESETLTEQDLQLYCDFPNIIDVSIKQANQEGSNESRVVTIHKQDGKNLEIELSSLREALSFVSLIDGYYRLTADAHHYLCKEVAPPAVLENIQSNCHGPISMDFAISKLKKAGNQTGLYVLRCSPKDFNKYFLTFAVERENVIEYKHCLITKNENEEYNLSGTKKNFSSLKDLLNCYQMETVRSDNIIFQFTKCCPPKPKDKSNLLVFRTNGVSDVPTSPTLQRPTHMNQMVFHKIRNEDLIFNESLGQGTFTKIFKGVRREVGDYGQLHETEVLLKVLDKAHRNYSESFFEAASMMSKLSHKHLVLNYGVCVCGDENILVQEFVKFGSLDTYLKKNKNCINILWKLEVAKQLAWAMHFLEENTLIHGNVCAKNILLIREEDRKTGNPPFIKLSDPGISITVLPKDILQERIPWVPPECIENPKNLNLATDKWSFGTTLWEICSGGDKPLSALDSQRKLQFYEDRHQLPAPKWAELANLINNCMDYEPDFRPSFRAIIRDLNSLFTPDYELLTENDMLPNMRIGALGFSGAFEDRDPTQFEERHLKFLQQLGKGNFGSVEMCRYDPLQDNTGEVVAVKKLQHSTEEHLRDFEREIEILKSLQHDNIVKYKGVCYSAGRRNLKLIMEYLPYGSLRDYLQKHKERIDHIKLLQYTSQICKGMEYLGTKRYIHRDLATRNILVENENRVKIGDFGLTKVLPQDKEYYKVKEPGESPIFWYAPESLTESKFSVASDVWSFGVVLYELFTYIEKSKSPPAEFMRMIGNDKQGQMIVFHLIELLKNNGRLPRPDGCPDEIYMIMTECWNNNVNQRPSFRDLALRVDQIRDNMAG", "test": "Phosphorylation of STAT3 by JAK2", "assay_type": "biochemical", "text": "Suzhou Zelgen Biopharmaceuticals Co., Ltd. Jaktinib Hydrochloride Tablets Chemical Drug Class 1 New Drug has been completed. The ongoing toxicity tests include a long-term 39-week toxicity test in Beagle dogs by oral administration, a reproductive toxicity test in rats during the teratogenic sensitive period, and a reproductive toxicity test in rabbits during the teratogenic sensitive period.\nPreclinical Pharmacodynamic Study\nStudy on the in vitro Pharmacodynamic Effects of ZG0163 at the […]\nIn this study, the effects of ZG0163 was similar to those of positive control compounds, ZG0164 and ZG0178.\nStudy on the in vitro Pharmacodynamic Effects of ZG0163 at the Cellular Level (Ba/F3-EpoR-JAK2V617F cells)\nJAK2V617F cell line, the compound ZG0163 was able to induce apoptosis of pathogenic cells and eliminate abnormal cell proliferation by inhibiting the JAK-STAT signaling pathway, thus achieving treatment efficacy in myeloproliferative neoplasms. […]\ncell line, manifested as significant inhibition of phosphorylation of JAK2 and its downstream signaling proteins ERK and STAT5. The effects of ZG0163 was similar to those of positive control compounds, ZG0164 and ZG0178.\nEpoR-JAK2V617F, which was similar to those of positive control compounds, ZG0164"}, "[2]": {"test": "PK, single intravenous dose", "assay_type": "in vivo, rats", "conditions": "6.1 mg/kg ZG0128 iv", "protocol": "Preclinical Pharmacokinetic Properties\nPharmacokinetic Study of Single Dose Intravenous Administration in […]\nZG0163 administered via intravenous injection had low plasma clearance in rats, […]\nThe Tmax of the metabolite\nZG0245 in rats was 1.0 h on average, and the plasma exposure (AUC0-t) was 15.0% of the original drug. The pharmacokinetic parameters obtained after the intravenous […]\nTable 10. Pharmacokinetic parameters of ZG0163 in rats administered with 6.1 mg/kg of ZG0128 via intravenous injection. […]"}, "[3]": {"test": "PK, single intravenous dose", "assay_type": "in vivo, beagles", "conditions": "12.2 mg ZG0128 (1.22 mg/kg)", "protocol": "Suzhou Zelgen Biopharmaceuticals Co., Ltd. Jaktinib Hydrochloride Tablets Chemical Drug Class 1 New Drug\nPharmacokinetics of single dose intravenous administration in beagles.\nAfter intravenous administration of 12.2 mg ZG0128 (the average weight of the beagles was about 10 kg, so the dose given equals to 1.22 mg/kg ZG0128), ZG0163 […]\nAUC0-t was 70.1% of that of the original drug.\nPharmacokinetics of single-dose intragastric administration.\nThe average Tmax of ZG0163 was 2.0 h after a single-dose intragastric administration of 1, 2, and 4 ZG0128 tablets (corresponding to 61, 122, and 244 […]\nmg/ZG0128). […] The plasma […]\nexposure AUC0-t was 459, 948, and 1728 ng•h/mL (mean) and the average plasma […]\nThere were large individual differences in plasma exposure AUC0-t in dogs. The pharmacokinetic differences between genders could not be determined. Within the range of 61-244 mg, the AUC0-t of ZG0163 increased proportionally with the increasing dosage. The average Tmax of metabolite ZG0245 was 2.0 h. The plasma exposure of metabolite ZG0245 was roughly 2.16 times"}, "[4]": {"test": "PK, 7-day intragastric dosing", "assay_type": "in vivo, beagles", "conditions": "122 mg/animal once daily", "protocol": "Suzhou Zelgen Biopharmaceuticals Co., Ltd. Jaktinib Hydrochloride Tablets Chemical Drug Class 1 New Drug higher than ZG0163, which was higher than the ratio of intravenous administration. […]\nproduced through first-pass metabolism. Within the dosage range of 61-244 mg, the AUC0-t of ZG0245 increased proportionally with the increasing dosage.\nPharmacokinetics of 7 consecutive days of multi-dose intragastric […]\nAfter 7 consecutive days of intragastric administration (2 tablets once daily, equal […]\nrespectively, when compared to single-dose administration. The Cmax and AUC0-t of metabolite ZG0245 were 1.33 and 0.95 times compared to single-dose administration.\nThus, there was no significant accumulation of ZG0163 and metabolite ZG0245 after 7 days of consecutive administration. […]\nintragastric administration of 61 mg ZG0163.\nZG0128, and the exposure was 93.0% of that of the medium dosage group (122 […]\nof that of the medium dosage group (122 mg/animal).\nIdentification of Metabolites in Rat Samples\nUsing UPLC-UV/Q-TOF MS, potential metabolites were identified in rat plasma, urine, feces and bile, after single intragastric administration of 30.5 mg/kg ZG0128, as well as metabolites in mice plasma after single intragastric administration of 61 mg/kg ZG0128. […]"}, "[5]": {"conditions": "all SAD volunteers who received jaktinib"}}, "note": "“And” between values parts separate entries of the source, which are not always exact repeats. Identical values can stand only once."}
{"substance": "Jaktinib", "values": [{"measurement": "Elevated serum creatinine", "setting": "[1]; 25 mg, Grade 1–2", "result": "1 (16.7) n (%)"}, {"measurement": "Hematuria", "setting": "[1]; 100 mg, Grade 1–2", "result": "1 (16.7) n (%)"}, {"measurement": "Fecal leukocytosis", "setting": "[1]; 150 mg, Grade 1–2", "result": "1 (16.7) n (%)"}, {"measurement": "Hyperglycemia", "setting": "[1]; 150 mg, Grade 1–2", "result": "1 (16.7) n (%)"}, {"measurement": "Mucous stool", "setting": "[1]; 150 mg, Grade 1–2", "result": "1 (16.7) n (%)"}, {"measurement": "Positive fecal occult blood", "setting": "[1]; 150 mg, Grade 1–2", "result": "1 (16.7) n (%)"}, {"measurement": "Upper abdominal pain", "setting": "[1]; 150 mg, Grade 1–2", "result": "1 (16.7) n (%)"}, {"measurement": "Urinary sediment positive", "setting": "[1]; 150 mg, Grade 1–2", "result": "1 (16.7) n (%)"}, {"measurement": "Urine erythrocyte positive", "setting": "[1]; 150 mg, Grade 1–2", "result": "3 (50.0) n (%)"}, {"measurement": "Urine leukocyte positive", "setting": "[1]; 150 mg, Grade 1–2", "result": "2 (33.3) n (%)"}, {"measurement": "Nausea", "setting": "[1]; 200 mg, Grade 1–2", "result": "1 (16.7) n (%)"}, {"measurement": "Urine erythrocyte positive", "setting": "[1]; 200 mg, Grade 1–2", "result": "1 (16.7) n (%)"}, {"measurement": "Fever", "setting": "[1]; 250 mg, Grade 1–2", "result": "1 (16.7) n (%)"}, {"measurement": "Headache", "setting": "[1]; 250 mg, Grade 1–2", "result": "1 (16.7) n (%)"}, {"measurement": "Varicella", "setting": "[1]; 250 mg, Grade 3", "result": "1 (16.7) n (%)"}, {"measurement": "Dizziness", "setting": "[1]; 300 mg, Grade 1–2", "result": "1 (16.7) n (%)"}, {"measurement": "Fever", "setting": "[1]; 300 mg, Grade 1–2", "result": "1 (16.7) n (%)"}, {"measurement": "Headache", "setting": "[1]; 300 mg, Grade 1–2", "result": "4 (66.7) n (%)"}, {"measurement": "Lymphocytopenia", "setting": "[1]; 300 mg, Grade 1–2", "result": "1 (16.7) n (%)"}, {"measurement": "Neutrophilic granulocytosis", "setting": "[1]; 300 mg, Grade 1–2", "result": "1 (16.7) n (%)"}, {"measurement": "Anemia", "setting": "[1]; 400 mg, Grade 1–2", "result": "1 (16.7) n (%)"}, {"measurement": "volunteers with treatment-related AEs", "setting": "[1]; all SAD cohorts", "result": 28.1, "unit": "%"}, {"measurement": "Headache incidence", "setting": "[1]; [5]", "result": 10.4, "unit": "%"}, {"measurement": "positive urine erythrocyte incidence", "setting": "[1]; [5]", "result": 8.3, "unit": "%"}, {"measurement": "IC50", "setting": "JAK2", "result": "~100", "unit": "nM"}, {"measurement": "AUC0-t", "setting": "[2]; Female", "result": 26000, "unit": "ng·h/mL"}, {"measurement": "AUC0-∞", "setting": "[2]; Female", "result": 26000, "unit": "ng·h/mL"}, {"measurement": "CL", "setting": "[2]; Female", "result": "3.23 ± 0.38", "unit": "mL/min/kg"}, {"measurement": "MRT", "setting": "[2]; Female", "result": 2.11, "unit": "h"}, {"measurement": "Vss", "setting": "[2]; Female", "result": "0.407 ± 0.063", "unit": "L/kg"}, {"measurement": "t1/2", "setting": "[2]; Female", "result": 2.01, "unit": "h"}, {"measurement": "AUC0-t", "setting": "[2]; Male", "result": 17700, "unit": "ng·h/mL"}, {"measurement": "AUC0-∞", "setting": "[2]; Male", "result": 17700, "unit": "ng·h/mL"}, {"measurement": "CL", "setting": "[2]; Male", "result": "4.92 ± 1.34", "unit": "mL/min/kg"}, {"measurement": "MRT", "setting": "[2]; Male", "result": 2.16, "unit": "h"}, {"measurement": "Vss", "setting": "[2]; Male", "result": "0.620 ± 0.120", "unit": "L/kg"}, {"measurement": "t1/2", "setting": "[2]; Male", "result": 2.01, "unit": "h"}, {"measurement": "AUC0-t", "setting": "[2]; Overall", "result": 21800, "unit": "ng·h/mL"}, {"measurement": "AUC0-∞", "setting": "[2]; Overall", "result": 21900, "unit": "ng·h/mL"}, {"measurement": "MRT", "setting": "[2]; Overall", "result": 2.14, "unit": "h"}, {"measurement": "t1/2", "setting": "[2]; Overall", "result": 2.01, "unit": "h"}, {"measurement": "CL", "setting": "[2]; Overall, listed as ZG0163", "result": "4.07 mL/min/kg and 4.07 ± 1.28 mL/min/kg"}, {"measurement": "Vss", "setting": "[2]; Overall, listed as ZG0163", "result": "0.514 L/kg and 0.514 ± 0.145 L/kg"}, {"measurement": "plasma clearance CL", "setting": "[3]", "result": 49.3, "unit": "mL/min/kg"}, {"measurement": "volume of distribution Vss", "setting": "[3]", "result": 3.49, "unit": "L/kg"}, {"measurement": "day on which steady state was reached", "setting": "[4]", "result": 5, "unit": "days"}]}
